In publication PMC2106221 (The Journal of Cell Biology, 1963):
Like-named read-outs stand apart in the source and are kept apart here. One block for each compound: values may come before it.

Tests used:
[1] = test system: trypsin-like amidase and esterase activity in human mast cells (mast cell enzyme(s)); format: biochemical; details: for time required for the appearance of visible mast cells, mean: double-blind; for time to observable mast cells at theoretical Vm: from the Lineweaver-Burk plot; for time for the demonstration of mast cells: optimal substrate concentration
[2] = target: T1, bovine trypsin (crystalline) (Bos taurus, UniProt P00760); format: biochemical; details: for Percentage inhibition 5 min.: DL-BANA 0.60 mM, enzyme 10 μg/ml
T1 sequence (P00760 24-246): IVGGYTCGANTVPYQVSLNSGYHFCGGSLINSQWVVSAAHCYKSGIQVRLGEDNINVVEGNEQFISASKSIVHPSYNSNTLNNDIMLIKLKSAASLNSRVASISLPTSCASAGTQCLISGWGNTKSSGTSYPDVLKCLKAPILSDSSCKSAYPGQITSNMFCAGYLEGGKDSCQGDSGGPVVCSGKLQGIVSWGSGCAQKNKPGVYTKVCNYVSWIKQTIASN

[3] = diazonium coupling velocity in test tube, spectrophotometric half-reaction times; format: physicochemical
[4] = test system: chymotrypsin; details: pH 7.2 ref 2; cited from earlier work
[5] = spontaneous hydrolysis of ester substrate in water/buffer; format: physicochemical
[6] = test system: canine mast cells; assay: histochemical reaction in canine skin sections; format: biochemical, dog; details: incubation period of 1 hour
[7] = target: T1, bovine trypsin (crystalline); details: trypsin 4 X pancreatin (Nutritional Biochemical Corporation) ref 1; cited from earlier work
[8] = Lineweaver-Burk plot, human mast cells

SMILES: COC(=O)[C@H](CCCNC(=N)N)NC(=O)c1ccccc1 [BAME, benzoyl-L-arginine methyl ester, reference compound]
nature of inhibition of DL-BANA hydrolysis [1, 8]: competitive
nature of inhibition of EACA-AS hydrolysis [1, 8]: competitive inhibitor

SMILES: Cc1ccccc1NC(=O)c1cc2ccccc2cc1OC(=O)CCCCCN [EACA-AS-D, Naphthol AS-D ε-aminocaproate]
results as substrate compared with EACA-AS ([1]; both biochemical and histochemical studies): essentially the same results as EACA-AS

SMILES: Cl.N=C(N)NCCCC(NC(=O)c1ccccc1)C(=O)Nc1ccc2ccccc2c1 (racemic) [DL-BANA, benzoyl-DL-arginine β-naphthylamide hydrochloride]
Vm ([2]; in the absence of Garnet GBC): 50 mμM β-naphthylamine liberated
Vm ([2]; in the presence of Garnet GBC): 30 mμM β-naphthylamine liberated
time required for the appearance of visible mast cells, mean ([1]; Experiment 1, DL-BANA 0.12 mM): 7.0 min
time required for the appearance of visible mast cells, mean ([1]; Experiment 2, DL-BANA 0.050 mM): 15.9 min
time to observable mast cells at theoretical Vm [1]: 2 min
time for the demonstration of mast cells ([1]; human mast cells): 5 to 6 min

SMILES: Nc1ccc2ccccc2c1 [β-naphthylamine]
Half-reaction time of coupling with Garnet GBC ([3]; Garnet GBC 0.70 mg/ml, presence of Tween 20): 7 s
Half-reaction time of coupling with Garnet GBC ([3]; Garnet GBC 0.70 mg/ml, presence of albumin): 48 s
Half-reaction time of coupling with Garnet GBC ([3]; Garnet GBC 0.70 mg/ml, water, pH 7.2): 93 s
Half-reaction time of coupling with Garnet GBC ([3]; Garnet GBC 1.40 mg/ml, presence of Tween 20): 4 s
Half-reaction time of coupling with Garnet GBC ([3]; Garnet GBC 1.40 mg/ml, presence of albumin): 23 s
Half-reaction time of coupling with Garnet GBC ([3]; Garnet GBC 1.40 mg/ml, water, pH 7.2): 42 s

substrate concentration at approximately 50 per cent of the reaction velocity ([2]; trypsin, velocity calculated from the Lineweaver-Burk plot): ~20 /ZM
spontaneous hydrolysis in water ([5]; pH 5-6): insignificant
SMILES: NCCCCCC(=O)Oc1cc2ccccc2cc1C(=O)Nc1ccccc1 [EACA-AS, Naphthol AS ε-aminocaproate]
hydrolysis by chymotrypsin relative to that of trypsin [4]: about 10 per cent
mean substrate concentration during spontaneous hydrolysis ([5]; pH 7.2, during 20 minutes): 92 per cent of the original concentration
mean substrate concentration during spontaneous hydrolysis ([5]; pH 7.2, during 30 minutes): 90 per cent of the original concentration
mean substrate concentration during spontaneous hydrolysis ([5]; pH 7.2, during the first 10 minutes): 95 per cent of the original concentration
substrate concentration at approximately half-maximal velocity ([1]; human mast cells, Fig. 7): ~7 #M

SMILES: NC(=O)[C@H](CCCN=C(N)N)NC(=O)c1ccccc1 [BAA, benzoyl-L-arginine amide, reference compound]
nature of inhibition of DL-BANA hydrolysis [1, 8]: competitive
nature of inhibition of DL-BLyNA hydrolysis ([1]; human mast cells): competitive

SMILES: Cl.NCCCCC(NC(=O)c1ccccc1)C(=O)Nc1ccc2ccccc2c1 (racemic) [DL-BLyNA, benzoyl-DL-lysine β-naphthylamide hydrochloride]
reaction in canine mast cells [6]: No reaction
time to observable mast cells at theoretical Vm [1]: 2 min
time for the demonstration of mast cells ([1]; human mast cells): 5 to 6 min

SMILES: Cl.N=C(N)NCCC[C@@H](NC(=O)c1ccccc1)C(=O)Nc1ccc2ccccc2c1 [D-BANA, benzoyl-D-arginine β-naphthylamide hydrochloride]
nature of inhibition of tryptic hydrolysis of L-BANA [2]: competitive inhibitor
substrate for trypsin [2]: not a substrate for trypsin
nature of inhibition of DL-BANA hydrolysis [1, 8]: competitive inhibitor
hydrolysis in the mast cells ([1]; tested as substrate): not hydrolyzed

Percentage inhibition 5 min. ([2]; Garnet GBC 0.05 mg/ml): 4.7%
Percentage inhibition 5 min. ([2]; Garnet GBC 0.10 mg/ml): 13.2%
Percentage inhibition 5 min. ([2]; Garnet GBC 0.20 mg/ml): 16.5%
Percentage inhibition 5 min. ([2]; Garnet GBC 0.40 mg/ml): 20.1%
Percentage inhibition 5 min. ([2]; Garnet GBC 2.00 mg/ml): 35.0%
nature of inhibition of tryptic DL-BANA hydrolysis ([2]; Lineweaver-Burk plot): uncompetitive inhibition
inhibition of Vm of DL-BANA hydrolysis by the diazonium salt ([2]; from Lineweaver-Burk plot, Fig. 6): about 40 per cent
change of hydrolysis rate after preincubation with diazonium salt ([2]; preincubation of 60 minutes prior to the addition of substrate): no more than 15 per cent
SMILES: Cc1ccccc1N=Nc1ccc([N+]#N)c(C)c1 [Garnet GBC]
inhibition of DL-BANA hydrolysis [7]: Up to 75 per cent
